Source: patent publication US20140329863A1 (priority 2011, published 2014)
Read-outs that look alike come from different tables or passages of the source.

Columns and labels:
[1] = system: PrP^Sc in dividing ScN2a-cl3 cells; assay type: cell-based, mouse
PrP^C in T98G cells = assay type: cell-based, human; settings: read-out: EC50 (μM) ELISA potency, PrP^C in T98G cells
[2] = Hepatic microsomal stability, human; settings: human liver microsomes
[3] = Hepatic microsomal stability, mouse; settings: mouse liver microsomes
[4] = Table 29, 2-AMT analogs tested for potency, usually n = 3 or more

Row | Compound | EC50 (PrP^C in T98G cells) [µM] | also measured
1 | Cc1ccc(Nc2nc(-c3ccc(OC(F)(F)F)cc3)cs2)nc1 [IND26, (5-Methyl-pyridin-2-yl)-[4-(4-trifluoromethoxy-phenyl)-thiazol-2-yl]-amine] |  | melting point: 205 to 207 °C; EC50 ([1]; AMT analogs tested for potency): > 10000 nM; EC50 [1, 4]: > 10000 nM
2 | Cc1ccc(Nc2nc(-c3cccc(C#N)c3)cs2)nc1 [IND38, 3-[2-(5-Methyl-pyridin-2-ylamino)-thiazol-4-yl]-benzonitrile] |  | melting point: 268 to 272 °C; EC50 ([1]; AMT analogs tested for potency): 2290 nM; EC50 [1, 4]: 2290 nM
3 | Cc1ccnc(Nc2nc(-c3ccc4c(c3)OCCO4)cs2)c1 [IND57, [4-(2,3-Dihydro-benzo[1,4]dioxin-6-yl)-thiazol-2-yl]-(4-methyl-pyridin-2-yl)-amine] |  | melting point: 230 to 240 °C; EC50 ([1]; AMT analogs tested for potency): > 10000 nM; EC50 [1, 4]: > 10000 nM
4 | COc1cc(C(=O)c2cc(Cl)ccc2N)cc(OC)c1OC [IND1323] | 0.085 | 
5 | CC1=CC(C)(C)N(S(=O)(=O)c2ccc(C)cc2)c2cc(C)ccc21 [IND5418] | 0.649 | 
6 | CCOC(=O)c1[nH]c(C)c(C(=O)c2ccc(C)cc2)c1C [IND5672] | 0.593 | 
7 | CCOc1ccccc1C1C(C#N)=C(N)Oc2cc(N(C)C)ccc21 (stereo not shown) [IND8541] | 0.155 | Hepatic Extraction Ratio Human ([2]; predicted hepatic extraction): 0.77; half-life at 1 μM ([2]; human, pH 7.4): 20.3 min; Hepatic Extraction Ratio Mouse ([3]; predicted hepatic extraction): 0.97; half-life at 1 μM ([3]; mouse, pH 7.4): 1.71 min
8 | Cc1ccn2c(-c3csc(Nc4ccc(N(C)C)nc4)n3)c(C)nc2c1 [IND9756] | 0.18 | 
9 | CCOc1ccc2c(c1)C(C)=CC(C)(C)N2S(=O)(=O)c1ccc(C)cc1 [IND16365] | 0.304 | 
10 | CN(C)c1ccc2c(c1)OC(N)=C(C#N)C2c1cccc(F)c1 (stereo not shown) [IND17990] | 0.031 | 
11 | Cc1cc(C)c(S(=O)(=O)NCc2ccncc2)c(C)c1 [IND18762] | 4.13 | 
12 | CN(C)c1ccc2c(c1)OC(N)=C(C#N)C2c1cccs1 (stereo not shown) [IND23846] | 0.21 | 
13 | COC(=O)c1[nH]c2c(c1C)C(=O)CC(c1cccs1)C2 (stereo not shown) [IND73602] | 0.521 | 
14 | N#Cc1c(NC(=O)CCc2cccs2)sc2c1CCCC2 [IND82865] | 0.242 | 
15 | O=C(Nc1ccc(I)cn1)c1cccc(F)c1 [IND84911] | 0.55 | 
16 | CCc1nnc(NC(=O)c2ccoc2COc2ccccc2)s1 [IND85692] | 2.28 | 
17 | O=C(Nc1ccncc1)C1CCCN1S(=O)(=O)c1ccc2ccccc2c1 (stereo not shown) [IND86287] | 2.65 | 
18 | Cc1nc2ncccn2c1-c1csc(Nc2ccc(Cl)cc2)n1 [IND115948] | 1.85 | 
